Entries after “also recorded” stand apart in the source; their conditions may differ.

Data set [1] relates to differentiated human airway epithelia. The format is cell-based. To be noted: VSV-G pseudotyped HIV-based lentivirus.
Data set [2] has as its system differentiated human airway epithelial cells. The format is cell-based.
Data set [3] deals with differentiated human airway epithelia. Briefly: Transepithelial resistance of KGF-treated airway epithelia with Ca2+ chelators. The class given is cell-based. To be noted: 6 mM chelator, isotonic (220 mmol/kg). The protocol:
Differentiated epithelial cells were treated with 100 ng/ml KGF for 24 hr. Different concentrations of each calcium chelator in HEPES/HCl (pH 7.4) or in isotonic HEPES/saline (pH 7.4) buffer were mixed with vector buffer and applied to the apical surface for times as specified (Wang et al., 1998). Transepithelial resistance was measured with an Ohmmeter (EVOM; World Precision Instruments, Inc. Sarasota, Fla.) by adding cell culture media to the apical surface and the values were compared to untreated controls.
To understand whether the tonicity of the vector solution affects epithelial permeability and gene transfer efficiency, hypotonic (40 mmol/kg) or isotonic (220 mmol/kg) solutions of 6 mM EGTA, EDTA or BAPTA were added to the MuLV vector buffer and applied to the apical surface of differentiated airway epithelial cells pre-treated with KGF. At specific time intervals, transepithelial resistance (R1) was measured using an Ohmmeter.

In a further data set the test system is human nasal epithelium. Briefly: Nasal transepithelial voltage (Vt) in human volunteers. The format is in vivo. How it is done:
Human studies. The Vt across the nasal epithelium was measured in 6 volunteers using previously described methods (Zabner et al., 1996). The protocol followed was identical to that described above for the rabbit studies. […] The catheter was then left in that position for the entire recording period. The solutions were administered through the second lumen in the following order: 1) Normal saline for 5 min; 2) Sterile water with 10 mM EGTA or 10 mM EDTA for 10 min; 3) Nommal saline with 10 mM EGTA or 10 mM EDTA for 5 min; and 4) Normal saline with 10 mM, EGTA or 10 mM EDTA plus […] amiloride for 5 min. Measurements of Vt were read by two investigators who were blinded and wvere checked by a third investigator if there was a discrepancy of more than 2 mV. Disruption of epithelial junctions was assessed by detecting a fall in nasal Vt after perfusion with the chelator, and by the loss of amiloride-sensitive Vt after perfusion with the. chelator solution.

The subject of data set [4] is rabbit tracheal epithelium. Briefly: Retroviral or adenoviral gene transfer to rabbit tracheal epithelium after EGTA pretreatment. The class given is in vivo. The conditions noted are these: retroviral (MuLV, KGF pretreated) or adenoviral vector, three days. The protocol: Gene transfer to the rabbit tracheal epithelium In Vito. Adult New Zealand white rabbits were anesthetized with 32 mg/kg ketamnine, 5.1 mg/kg xylazine and 0.8 mg/kg acepromazine intramuscularly. Using sterile technique, a ventral midline incision was made, exposing the trachea for tracheotomy. A ˜1.5 cm tracheal segment cephalad to the tracheotomy was isolated, and cannulated on each end with PE 330 tubing (Clay Adams, Becton Dickinson). The tracheal segment was first rinsed and then filled with a solution of 12 mM EGTA in water for 45 min. The EGTA solution was removed, and as replaced with 300 μl of retrovirus (titer 3×10^9 cfu/ml) or adenovirus (titer 1×10^10 pfu/ml) vector. In control animals, saline was substituted for water and EGTA treatment. Animals that received the MuLV retrovirus were pretreated with keratinocyte growth factor (KGF) prior to gene transfer to stimulate epithelial proliferation (˜5 mg/kg intravenously and 600 μg via nasal instillation for 3 doses given 36, 24 and 12 hr preceding the procedure) (Wang et al., 1998; Wang et al., 1999). The vector solution was left in place for an additional 45 min. and then the cannulae were removed, the incisions closed, and animals were allowed to recover. Three days later, animals were sacrificed, and the tissues studied for β-galactosidase expression.

For data set [5], the system named is polarized human bronchial epithelial cells. The data set can be described thus: Transepithelial resistance of polarized bronchial cultures after hypotonic EGTA. The format is cell-based. The conditions noted are these: 3 mM EGTA-H2O, 10 min, 37° C., immediate. The protocol:
For the UV irradiation studies, Millicell inserts were put transiently into empty 100-mm tissue culture plates (apical side up) and exposed to 25 J/m^2 of UV light (254 nm). After irradiation, the Millicell inserts were quickly returned to plates containing Ultraser G culture medium on the basolateral side. Infections with rAAV were performed immediately following UV irradiation by application of 5×10^9 rAAV particles in 100 μl to either the apical or basolateral side of the support membrane as described above. Keratinocyte growth factor (KGF) treatment was performed at a final concentration of 100 ng/ml by addition to the basolateral culture medium for two sequential 24-hr incubations prior to AAV infection. Transient disruption of tight junctions was achieved by treating polarized cells with 3 mM EGTA in water for 10 min. After hypotonic EGTA treatment, cultures were washed twice with culture medium and infected with 5×10^9 rAAV particles in […] on either the apical or basolateral side of support membranes.
The transepithelial resistance of primary airway cultures was monitored with an ohm meter (EVOM; World Precision Instruments, Sarasota Fla.), as previously described (Wang et al., 1998). […] Electrodes were placed in both the mucosal and serosal compartments of the Millicell inserts and the resistance across the epithelia was recorded.

Data set [6] concerns primary cultures of human airway epithelia. The data set can be described thus: EGTA dose range for gene transfer on primary cultures of human airway epithelia. To be noted: MuLV or FIV based retroviruses, MOI 10, range tested 0-96 mM, 4 hrs apical. The format is cell-based. The protocol:
The optimal dose range for EGTA was determined on primary cultures of human airway epithelia Gene transfer efficiency with apical application of MuLV or FIV based retrovirus (MOI 10) or adenovirus (MOI 50) was determined over a range of EGTA concentrations from 0-96 mM. The vectors were diluted 1:1 (vol/vol) with a buffer consisting of water, 10 mM HEPES and the appropriate amount of EGTA. The vector formulation was left on the apical surface of the cells for 4 hrs, then removed. Gene transfer efficiency was evaluated 3 days later by X-gal staining for beta galactosidase expression.

Consider `O=C(O)CN(CCOCCOCCN(CC(=O)O)CC(=O)O)CC(=O)O` [EGTA], for which the “gene transfer, apical surface of quiescent cells with EGTA/hypotonic buffer” value in data set [1] was “gene transfer was enhanced”. In data set [2], the “effect of EGTA solution alone on cell proliferation (BrdU histochemistry)” value was “had no effect on cell proliferation”. The “time required to decrease R1 to ~20% of the controls” value in data set [3] is reported as “Sixty”. Further, the “adverse effects of nasal perfusion” value in the data set on human nasal epithelium (10 mM EGTA, volunteers) is given as “did not experience any adverse effects”. Moreover, the “nasal Vt” value in the data set on human nasal epithelium (H2O/chelator then chelator in saline, 10 mM) was “there was a significant decrease in the Vt”. In the data set on human nasal epithelium (n=6), the “amiloride-sensitive nasal Vt after EGTA treatment” value is “EGTA treatment abolished the amiloride-sensitive Vt; also recorded: essentially no amiloride-sensitive Vt remained”. In addition, the “gene transfer to tracheal epithelium after pretreatment with 12 mM EGTA in water” value in data set [4] is “transduced cells throughout the tracheal epithelium”. For the same molecule, in data set [5], the “decrease in transepithelial resistance” value is “greater than 10 fold”. For the same molecule, the “EGTA concentration giving greatest gene transfer (percentage of blue cells)” value in data set [6] was in the range of 6 to 12 mM.
